Test results taken from patent publication US20240150365A1 (Hotspot Therapeutics, Inc., priority 2022, published 2024).

Experiments:
NF-kB = NF-kB reporter assay in Jurkat cells stimulated with aCD3/aCD28/PMA; format: cell-based; settings: Homo sapiens, Jurkat, Jurkat cells, 1 hr compound incubation, aCD3/aCD28/PMA stimulation 4 hr, One-Glo readout; read-out: NF-kB Reporter Assay IC50
Method in brief: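 Stimulation used final aCD3 5 μg/mL, aCD28 5 μg/mL and PMA 0.03 μg/mL for 4 hr at 37° C, after 1 hr compound pretreatment of 25,000 serum-starved Jurkat cells per well. One-Glo luminescence gave IC50 values.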

MALT1 = biological target: T1, MALT1 (Homo sapiens, UniProt Q9UDY8); experiment: MALT-1 Fluorogenic Peptide Cleavage Assay (MALT1 inhibition assay); format: biochemical; settings: Avi-tagged FL MALT-1, Ac-LRSR-AMC peptide substrate, 30 min pre-incubation, 90 min reaction
T1 construct: Avi-tagged FL MALT-1 (Pharmaron, stored at −70° C.); Avi tag
T1 sequence (Q9UDY8 1-824): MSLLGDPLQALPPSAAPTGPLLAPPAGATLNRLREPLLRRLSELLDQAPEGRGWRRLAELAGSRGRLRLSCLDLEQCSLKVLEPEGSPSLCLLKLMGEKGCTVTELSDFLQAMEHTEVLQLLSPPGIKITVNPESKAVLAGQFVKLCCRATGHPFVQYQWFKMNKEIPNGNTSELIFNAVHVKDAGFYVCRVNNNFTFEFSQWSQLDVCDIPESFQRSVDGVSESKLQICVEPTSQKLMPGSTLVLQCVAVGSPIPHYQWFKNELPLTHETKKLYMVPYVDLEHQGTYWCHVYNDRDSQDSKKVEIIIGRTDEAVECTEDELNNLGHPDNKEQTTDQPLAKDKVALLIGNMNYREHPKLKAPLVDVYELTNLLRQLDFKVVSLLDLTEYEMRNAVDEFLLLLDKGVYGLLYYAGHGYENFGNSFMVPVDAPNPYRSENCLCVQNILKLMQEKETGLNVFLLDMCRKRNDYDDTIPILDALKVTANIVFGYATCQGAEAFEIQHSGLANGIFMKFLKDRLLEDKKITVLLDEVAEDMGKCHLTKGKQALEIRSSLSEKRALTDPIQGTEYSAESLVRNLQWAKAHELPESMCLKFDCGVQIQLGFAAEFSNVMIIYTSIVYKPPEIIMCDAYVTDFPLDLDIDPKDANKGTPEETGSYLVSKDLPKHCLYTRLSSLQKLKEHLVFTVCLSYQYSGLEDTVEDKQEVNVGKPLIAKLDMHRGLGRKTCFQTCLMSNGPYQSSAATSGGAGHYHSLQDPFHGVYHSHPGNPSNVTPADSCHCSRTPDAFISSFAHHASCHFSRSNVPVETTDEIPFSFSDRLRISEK
Method in brief: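 IC50 from sigmoidal fits of % inhibition, with fluorescence (ex 342, em 441 nm) from AMC released from the quenched LRSR peptide after 90 min at room temperature. Full-length Avi-tagged MALT1 saw compound for 30 min first; final DMSO 2%.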

SMILES	IC50 (NF-kB)	IC50 (MALT1)
[2H]C([2H])([2H])n1ncc2cnc(OC)c(NS(=O)(=O)c3ccc(-n4cc(C(F)(F)F)cn4)nc3)c21 [Example I-290, N-(6-methoxy-1-(methyl-d3)-1H-pyrazolo[4,3-c]pyridin-7-yl)-6-(4-(trifluoromethyl)-1H-pyrazol-1-yl)pyridine-3-sulfonamide]	< 400 nM	< 400 nM
[2H]C([2H])([2H])n1ncc2cnc(OC)c(N(C)S(=O)(=O)c3ccc(-n4cc(C(F)(F)F)cn4)nc3)c21 [Example I-291, N-(6-methoxy-1-(methyl-d3)-1H-pyrazolo[4,3-c]pyridin-7-yl)-N-methyl-6-(4-(trifluoromethyl)-1H-pyrazol-1-yl)pyridine-3-sulfonamide]	< 400 nM	< 400 nM
O=S(=O)(c1ccc(-n2cc(C(F)(F)F)cn2)nc1)N1CCCn2ncc3cccc1c32 [Example I-292, 1-((6-(4-(trifluoromethyl)-1H-pyrazol-1-yl)pyridin-3-yl)sulfonyl)-1,2,3,4-tetrahydro-[1,4]diazepino[3,2,1-hi]indazole]	400 to 1000 nM	> 2500 nM
O=S(=O)(c1ccc(-n2cc(C(F)(F)F)cn2)nc1)N1CCCCn2ncc3cccc1c32 [Example I-293, 1-((6-(4-(trifluoromethyl)-1H-pyrazol-1-yl)pyridin-3-yl)sulfonyl)-2,3,4,5-tetrahydro-1H-[1,4]diazocino[3,2,1-hi]indazole]	400 to 1000 nM	> 2500 nM
O=S(=O)(c1ccc(-n2cc(C(F)(F)F)cn2)nc1)N1CCn2ncc3cccc1c32 [Example I-294, 1-((6-(4-(trifluoromethyl)-1H-pyrazol-1-yl)pyridin-3-yl)sulfonyl)-2,3-dihydro-1H-pyrazolo[1,5,4-de]quinoxaline]	1000 to 2500 nM	> 2500 nM
C=Cn1ncc2cccc(NS(=O)(=O)c3ccc(-n4cc(C(F)(F)F)cn4)nc3)c21 [Example I-296, 6-(4-(trifluoromethyl)-1H-pyrazol-1-yl)-N-(1-vinyl-1H-indazol-7-yl)pyridine-3-sulfonamide]	< 400 nM	1000 to 2500 nM
C=Cn1cc2cccc(NS(=O)(=O)c3ccc(-n4cc(C(F)(F)F)cn4)nc3)c2n1 [Example I-297]	> 2500 nM	> 2500 nM
Cn1ncc2cccc(NS(=O)(=O)c3ccc(-n4nc(C(F)(F)F)c5c4CCOC5)nc3)c21 [Example I-298]	< 400 nM	> 2500 nM
COc1ncc2cnn(C)c2c1NS(=O)(=O)c1ccc(-c2cnn3c2OCCC3)nc1 [Example I-299]	> 2500 nM	> 2500 nM
COc1ncc2cnn(C)c2c1NS(=O)(=O)c1ccc(-n2nc(C(F)(F)F)c3c2CCOC3)nc1 [Example I-300, N-(6-methoxy-1-methyl-1H-pyrazolo[4,3-c]pyridin-7-yl)-6-(3-(trifluoromethyl)-6,7-dihydropyrano[4,3-c]pyrazol-1(4H)-yl)pyridine-3-sulfonamide]	400 to 1000 nM	< 400 nM
COc1ncc2cnn(C)c2c1NS(=O)(=O)c1ccc(-c2cnn3c2COCC3)nc1 [Example I-301]	1000 to 2500 nM	1000 to 2500 nM
COc1ccc2cnn(C)c2c1NS(=O)(=O)c1ccc(-c2cnn3c2OCCC3)nc1 [Example I-303, 6-(6,7-dihydro-5H-pyrazolo[5,1-b][1,3]oxazin-3-yl)-N-(6-methoxy-1-methyl-1H-indazol-7-yl)pyridine-3-sulfonamide]	400 to 1000 nM	> 2500 nM
COc1ccc2cnn(C)c2c1NS(=O)(=O)c1ccc(-n2nc(C(F)(F)F)c3c2CCOC3)nc1 [Example I-304, N-(6-methoxy-1-methyl-1H-indazol-7-yl)-6-(3-(trifluoromethyl)-6,7-dihydropyrano[4,3-c]pyrazol-1(4H)-yl)pyridine-3-sulfonamide]	< 400 nM	< 400 nM
COc1ncc2cnn(C)c2c1NS(=O)(=O)c1ccc(-c2nn(C)c3c2COCC3)nc1 [Example I-305]	400 to 1000 nM	> 2500 nM
Cn1nc(-c2ccc(S(=O)(=O)Nc3cccc4cnn(C)c34)cn2)c2c1CCOC2 [Example I-306, 6-(1-methyl-1,4,6,7-tetrahydropyrano[4,3-c]pyrazol-3-yl)-N-(1-methyl-1H-indazol-7-yl)pyridine-3-sulfonamide]	< 400 nM	> 2500 nM
COc1ccc2cnn(C)c2c1NS(=O)(=O)c1ccc(-c2nn(C)c3c2COCC3)nc1 [Example I-307]	400 to 1000 nM	> 2500 nM
Cn1ncc2cccc(NS(=O)(=O)c3ccc(-c4cnc5n4CCOC5)nc3)c21 [Example I-309, 6-(5,6-dihydro-8H-imidazo[2,1-c][1,4]oxazin-3-yl)-N-(1-methyl-1H-indazol-7-yl)pyridine-3-sulfonamide]	< 400 nM	> 2500 nM
COc1ncc2cnn(C)c2c1NS(=O)(=O)c1ccc(-c2cnn3c2COCCC3)nc1 [Example I-311]	> 2500 nM	> 2500 nM
COc1ccc2cnn(C)c2c1NS(=O)(=O)c1ccc(-c2cnc3n2CCOC3)nc1 [Example I-312, 6-(5,6-dihydro-8H-imidazo[2,1-c][1,4]oxazin-3-yl)-N-(6-methoxy-1-methyl-1H-indazol-7-yl)pyridine-3-sulfonamide]	400 to 1000 nM	1000 to 2500 nM
[2H]C([2H])([2H])Oc1ccc2cnn(C([2H])([2H])[2H])c2c1NS(=O)(=O)c1ccc(-n2cc(C(F)(F)F)cn2)nc1 [Example I-316, N-(6-(methoxy-d3)-1-(methyl-d3)-1H-indazol-7-yl)-6-(4-(trifluoromethyl)-1H-pyrazol-1-yl)pyridine-3-sulfonamide]	< 400 nM	< 400 nM

Now from value to compound:

IC50 (NF-kB)	IC50 (MALT1)	SMILES
< 400 nM	> 2500 nM	Cc1n[nH]c2cccc(NS(=O)(=O)c3ccc(-c4cnn5c4CCC5)nc3)c12 [Example I-288]
400 to 1000 nM	> 2500 nM	COc1ncc2cnn(C)c2c1NS(=O)(=O)c1ccc(-c2cnn3c2CCC3)nc1 [Example I-289]
< 400 nM	> 2500 nM	COc1ccc2[nH]nc(C)c2c1NS(=O)(=O)c1ccc(-c2cnn3c2CCC3)nc1 [Example I-295]
< 400 nM	> 2500 nM	Cn1ncc2cccc(NS(=O)(=O)c3ccc(-c4cnn5c4OCCC5)nc3)c21 [Example I-302, N-(1-methylindazol-7-yl)-6-{5H,6H,7H-pyrazolo[3,2-b][1,3]oxazin-3-yl}pyridine-3-sulfonamide]
< 400 nM	1000 to 2500 nM	COc1ccc2cnn(C)c2c1NS(=O)(=O)c1ccc(-c2cnn3c2COCC3)nc1 [Example I-308]
> 2500 nM	> 2500 nM	COc1ccc2cnn(C)c2c1NS(=O)(=O)c1ccc(-c2cnn3c2COCCC3)nc1 [Example I-310, 6-(7,8-dihydro-4H,6H-pyrazolo[5,1-c][1,4]oxazepin-3-yl)-N-(6-methoxy-1-methyl-1H-indazol-7-yl)pyridine-3-sulfonamide]
< 400 nM	> 2500 nM	Cn1ncc2cccc(NS(=O)(=O)c3ccc(-c4cnn5c4COCCC5)nc3)c21 [Example I-313]
1000 to 2500 nM	> 2500 nM	CN1CCn2ncc(-c3ccc(S(=O)(=O)Nc4cccc5cnn(C)c45)cn3)c2C1 [Example I-314, 6-{5-methyl-4H,6H,7H-pyrazolo[1,5-a]pyrazin-3-yl}-N-(1-methylindazol-7-yl)pyridine-3-sulfonamide]
> 2500 nM	> 2500 nM	COc1ccc2cnn(C)c2c1NS(=O)(=O)c1ccc(-c2cnn3c2CN(C)CC3)nc1 [Example I-315]
